Test results: patent US12698293B2, “Crystal form of macrocyclic compound, and preparation method therefor and use thereof” (HITGEN INC., priority 2021, dated 2026)

Assays:
[1] = Accelerated stability test, crystal form checked by XRPD; type: physicochemical; conditions: 40 ± 2° C., relative humidity 75 ± 5%, seal
Experimental: The crystal form of the macrocyclic compound provided by the present invention was subjected to accelerated stability test to examine stability according to China Pharmacopoeia (2020 edition) Part Four General Principles 9103. Specifically, the crystal form was placed in a sealed space at temperature of 40±2° C. and a relative humidity of 75±5% for 6 months. The sample to be tested was taken at months 1, 2, 3 and 6, and detected using X-ray Powder Diffractometer.

[2] = Pharmacokinetic test in beagle dogs, plasma concentration after oral gavage; type: in vivo; conditions: dog, male beagle dogs, oral single gavage, 8 mg/kg
Experimental: After grouped (3 Beagle dogs per group), male beagle dogs were orally administered with the crystal form of the macrocyclic compound provided by the present invention via single gavage at a dose of 8 mg/kg. The plasma was collected at 0.25 h, 0.5 h, 1.0 h, 2.0 h, 4.0 h, 6.0 h, 8.0 h, and 24 h after the administration. A standard curve with appropriate range was established based on the concentration of the tested sample to calculate the concentration of the tested sample in plasma. The quantitative analysis was carried out and the pharmacokinetic parameters were calculated for the tested sample. The results are shown in Table 5, wherein Cmax represents the peak concentration, AUC0-last represents the area below the drug-time curve, Tmax represents peak time of the drug and T1/2 represents the half-life of the drug.

[3] = Hygroscopicity test by dynamic vapor sorption (DVS); type: physicochemical; conditions: for hygroscopicity characteristic: DVS, 0-80% relative humidity, China Pharmacopoeia 2020 classes; for weight change with increasing humidity (DVS): between 0-80% relative humidity
Experimental: The crystal form and amorphous form of the macrocyclic compound provided by the present invention were evaluated for hygroscopicity, and the test was performed using a dynamic vapor sorption to obtain data. The description of the hygroscopicity characteristic and the definition of the weight gain due to hygroscopicity (as shown in Table 2) are referred to China Pharmacopoeia (2020 edition) Part Four General Principles 9103.
The adsorption-desorption isotherm of the crystal form prepared in example 1 is shown in FIG. 5, wherein the abscissa is relative humidity and the ordinate is weight (%). […] The adsorption-desorption isotherm of the crystal form prepared in comparative example 1 is shown in FIG. 6, wherein the abscissa is relative humidity and the ordinate is weight (%).

[4] = Stability test on influence factors (high temperature, high humidity, light), purity by HPLC; type: physicochemical; conditions: for change of purity / impurity content during the experimental period (in words): high temperature, high humidity and light, 30 days
Experimental: The crystal form and the amorphous form of the macrocyclic compound provided by the present invention were subjected to the stability test on influence factors according to China Pharmacopoeia (2020 edition) Part Four General Principles 9103. Specifically, the crystal form of a macrocyclic compound prepared in example 1 and the amorphous form of the macrocyclic compound prepared in comparative example 1 were placed in an open space under the respective conditions of high temperature (60±2° C.), high humidity (90%±5% RH, 25±2° C.) and light (4500±500 Lx) for 30 days to test stability. The observation period was 30 days. The tested samples were taken on days 5, 10 and 30, and analyzed for purity by high performance liquid chromatography.

[5] = listed as comparative example 1

## C[C@@H]1CCOc2ccc(F)cc2[C@H]2CCCN2c2ccc3ncc(C#N)c(c3n2)N1 [Example 1, (6R,16R)-9-fluoro-16-methyl-13-oxa-2,17,21,25-tetraazapentacyclo [16.6.2.0^2,6.0^7,12.0^22,26]hexacosane-1(25),7,9,11,18(26), 19,21,23-octane-19-carbonitrile]
[1]; month 1
  crystal form by XRPD: Same as initial crystal form
[1]; month 2
  crystal form by XRPD: Same as initial crystal form
[1]; month 3
  crystal form by XRPD: Same as initial crystal form
[1]; month 6
  crystal form by XRPD: Same as initial crystal form
[2]
  AUC(0-t): 5340 ± 1070 ng·h/mL
  Tmax: 1.3 ± 0.58 h
  half-life: 19 ± 3.9 h
[2]; read-out: C0/Cmax
  Cmax: 729 ± 208 ng/mL
[3]; listed as example 1
  hygroscopicity characteristic: not hygroscopic
  weight change with increasing humidity (DVS): approximately 0.1%
[4]; High humidity (90%±5% RH, 25±2° C.), open, day 5, listed as example 1
  Sample purity (%): 98.8%
[4]; High humidity (90%±5% RH, 25±2° C.), open, day 10, listed as example 1
  Sample purity (%): 98.8%
[4]; High humidity (90%±5% RH, 25±2° C.), open, day 30, listed as example 1
  Sample purity (%): 98.8%
[4]; High temperature (60±2° C.), open, day 5, listed as example 1
  Sample purity (%): 99.0%
[4]; High temperature (60±2° C.), open, day 10, listed as example 1
  Sample purity (%): 98.9%
[4]; High temperature (60±2° C.), open, day 30, listed as example 1
  Sample purity (%): 98.9%
[4]; Light (4500±500 Lx), open, day 5, listed as example 1
  Sample purity (%): 98.9%
[4]; Light (4500±500 Lx), open, day 10, listed as example 1
  Sample purity (%): 98.8%
[4]; Light (4500±500 Lx), open, day 30, listed as example 1
  Sample purity (%): 98.6%
[4]; day 0, listed as example 1
  Sample purity (%): 98.8%
[4]; listed as example 1
  change of purity / impurity content during the experimental period (in words): increased slightly under the light condition only

## C[C@@H]1CCOc2ccc(F)cc2[C@H]2CCCN2c2ccc3ncc(C#N)c(c3n2)N1 [Comparative Example 1, (6R,16R)-9-fluoro-16-methyl-13-oxa-2,17,21,25-tetraazapentacyclo [16.6.2.0^2,6.0^7,12.0^22,26]hexacosane-1(25),7,9,11,18(26), 19,21,23-octane-19-carbonitrile]
[3]; [5]
  hygroscopicity characteristic: very hygroscopic (not less than 15%)
  weight change with increasing humidity (DVS): about 21.6%
[4]; High humidity (90%±5% RH, 25±2° C.), open, day 5, listed as comparative example 1
  Sample purity (%): 97.9%
[4]; High humidity (90%±5% RH, 25±2° C.), open, day 10, listed as comparative example 1
  Sample purity (%): 98.0%
[4]; High humidity (90%±5% RH, 25±2° C.), open, day 30, listed as comparative example 1
  Sample purity (%): 97.7%
[4]; High temperature (60±2° C.), open, day 5, listed as comparative example 1
  Sample purity (%): 97.6%
[4]; High temperature (60±2° C.), open, day 10, listed as comparative example 1
  Sample purity (%): 97.1%
[4]; High temperature (60±2° C.), open, day 30, listed as comparative example 1
  Sample purity (%): 96.9%
[4]; Light (4500±500 Lx), open, day 5, listed as comparative example 1
  Sample purity (%): 97.4%
[4]; Light (4500±500 Lx), open, day 10, listed as comparative example 1
  Sample purity (%): 96.8%
[4]; Light (4500±500 Lx), open, day 30, listed as comparative example 1
  Sample purity (%): 96.4%
[4]; day 0, listed as comparative example 1
  Sample purity (%): 98.1%
[4]; [5]
  change of purity / impurity content during the experimental period (in words): decrease in purity
